This note sets out measurements from ChEMBL document CHEMBL5442741, “ASAP - In vitro kinase profile” (2024).

Experiment [1] has as its target T1, Serine/threonine-protein kinase 17A (Homo sapiens) (UniProt Q9UEE5).
T1 sequence (whole entry): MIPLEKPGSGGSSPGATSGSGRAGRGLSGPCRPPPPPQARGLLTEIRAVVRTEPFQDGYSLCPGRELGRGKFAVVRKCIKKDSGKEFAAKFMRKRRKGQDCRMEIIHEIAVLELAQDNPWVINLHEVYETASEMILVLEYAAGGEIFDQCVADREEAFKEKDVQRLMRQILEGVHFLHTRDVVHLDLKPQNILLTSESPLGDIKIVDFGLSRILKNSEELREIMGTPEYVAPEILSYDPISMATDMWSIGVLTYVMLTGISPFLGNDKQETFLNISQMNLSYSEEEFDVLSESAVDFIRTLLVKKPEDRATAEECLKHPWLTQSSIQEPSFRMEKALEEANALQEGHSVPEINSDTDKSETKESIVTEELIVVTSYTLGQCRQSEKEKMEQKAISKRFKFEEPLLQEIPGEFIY
Nature of the experiment: Enzymatic radiometric [Km ATP] KinaseProfiler LeadHunter assay, kinase: DRAK1, catalogue number: 14-668KP The assay has been performed by Eurofins Discovery. To be noted: ATP concentration 10.0 uM, Test compound concentration 10.0 uM.

Experiment [2] addresses PI3K p110 beta/p85 alpha (Homo sapiens) (UniProt P27986+P42338). Briefly: Enzymatic radiometric [Km ATP] KinaseProfiler LeadHunter assay, kinase: PI3 Kinase (p110-beta/p85-alpha), catalogue number: 14-603KP The assay has been performed by Eurofins Discovery. The class given is protein-complex assay. The note with it: ATP concentration 200.0 uM, Test compound concentration 10.0 uM.

In experiment [3] the target is Tyrosine-protein kinase ABL1 (Homo sapiens) (UniProt P00519). Briefly: Enzymatic radiometric [Km ATP] KinaseProfiler LeadHunter assay, kinase: Abl, catalogue number: 14-529KP The assay has been performed by Eurofins Discovery. The note with it: ATP concentration 45.0 uM, Test compound concentration 10.0 uM.
Chain of Tyrosine-protein kinase ABL1 (Homo sapiens) (P00519 whole entry): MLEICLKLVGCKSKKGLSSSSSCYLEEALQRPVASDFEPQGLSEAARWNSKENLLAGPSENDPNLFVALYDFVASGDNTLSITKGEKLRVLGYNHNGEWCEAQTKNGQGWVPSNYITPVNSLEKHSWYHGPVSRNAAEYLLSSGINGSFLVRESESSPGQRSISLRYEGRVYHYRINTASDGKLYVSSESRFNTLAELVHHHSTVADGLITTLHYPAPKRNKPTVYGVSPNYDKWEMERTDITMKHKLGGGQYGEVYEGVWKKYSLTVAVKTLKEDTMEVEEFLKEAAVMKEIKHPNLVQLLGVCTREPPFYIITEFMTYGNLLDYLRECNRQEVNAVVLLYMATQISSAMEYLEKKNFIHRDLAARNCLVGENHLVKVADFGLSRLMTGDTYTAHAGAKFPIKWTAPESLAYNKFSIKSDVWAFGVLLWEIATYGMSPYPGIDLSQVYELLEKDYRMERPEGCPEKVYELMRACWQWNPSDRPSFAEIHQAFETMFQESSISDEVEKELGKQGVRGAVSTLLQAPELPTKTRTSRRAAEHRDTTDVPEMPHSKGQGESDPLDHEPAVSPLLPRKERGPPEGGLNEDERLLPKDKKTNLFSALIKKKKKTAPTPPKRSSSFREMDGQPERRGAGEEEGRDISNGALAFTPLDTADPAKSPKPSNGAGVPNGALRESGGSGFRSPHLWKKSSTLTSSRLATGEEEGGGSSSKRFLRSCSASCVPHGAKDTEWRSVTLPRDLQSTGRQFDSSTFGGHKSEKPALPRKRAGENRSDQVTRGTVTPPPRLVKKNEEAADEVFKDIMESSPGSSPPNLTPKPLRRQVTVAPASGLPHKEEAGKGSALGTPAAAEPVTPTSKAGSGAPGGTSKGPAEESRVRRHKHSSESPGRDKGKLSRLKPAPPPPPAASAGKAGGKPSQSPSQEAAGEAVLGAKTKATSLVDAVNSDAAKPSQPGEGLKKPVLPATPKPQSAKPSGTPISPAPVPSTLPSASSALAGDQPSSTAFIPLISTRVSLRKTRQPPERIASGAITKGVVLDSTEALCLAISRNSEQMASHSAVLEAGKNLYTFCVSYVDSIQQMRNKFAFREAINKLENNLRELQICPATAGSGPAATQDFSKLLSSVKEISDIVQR
Experiment [4] deals with T2, MAP kinase-activated protein kinase 5 (Homo sapiens) (UniProt Q8IW41).
T2 sequence (whole entry): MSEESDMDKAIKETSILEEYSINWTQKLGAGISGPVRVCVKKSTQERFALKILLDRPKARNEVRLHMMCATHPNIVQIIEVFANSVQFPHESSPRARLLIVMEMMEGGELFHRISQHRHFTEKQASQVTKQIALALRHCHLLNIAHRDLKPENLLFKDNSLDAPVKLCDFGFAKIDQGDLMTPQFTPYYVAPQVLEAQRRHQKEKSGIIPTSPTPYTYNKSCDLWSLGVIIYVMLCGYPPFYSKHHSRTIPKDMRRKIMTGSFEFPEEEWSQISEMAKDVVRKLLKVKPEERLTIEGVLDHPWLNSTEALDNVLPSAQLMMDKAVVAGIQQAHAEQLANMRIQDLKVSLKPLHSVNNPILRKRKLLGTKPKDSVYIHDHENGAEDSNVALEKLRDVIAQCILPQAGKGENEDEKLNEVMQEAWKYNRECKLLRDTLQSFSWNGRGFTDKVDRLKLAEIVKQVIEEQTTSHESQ
Nature of the experiment: Enzymatic radiometric [Km ATP] KinaseProfiler LeadHunter assay, kinase: PRAK, catalogue number: 14-334KP The assay has been performed by Eurofins Discovery. The note with it: ATP concentration 15.0 uM, Test compound concentration 10.0 uM.

Experiment [5] concerns the target 5'-AMP-activated protein kinase catalytic subunit alpha-1 (Homo sapiens) (UniProt Q13131). Nature of the experiment: Enzymatic radiometric [Km ATP] KinaseProfiler LeadHunter assay, kinase: AMPK-alpha1, catalogue number: 14-840KP The assay has been performed by Eurofins Discovery. To be noted: ATP concentration 45.0 uM, Test compound concentration 10.0 uM.
For experiment [6], the target named is Phosphatidylinositol 4,5-bisphosphate 3-kinase catalytic subunit gamma isoform (Homo sapiens) (UniProt P48736). Briefly: Enzymatic radiometric [Km ATP] KinaseProfiler LeadHunter assay, kinase: PI3 Kinase (p120-gamma), catalogue number: 14-558KP The assay has been performed by Eurofins Discovery. To be noted: ATP concentration 100.0 uM, Test compound concentration 10.0 uM.
Chain of Phosphatidylinositol 4,5-bisphosphate 3-kinase catalytic subunit gamma isoform (Homo sapiens) (P48736 whole entry, looked up, canonical isoform): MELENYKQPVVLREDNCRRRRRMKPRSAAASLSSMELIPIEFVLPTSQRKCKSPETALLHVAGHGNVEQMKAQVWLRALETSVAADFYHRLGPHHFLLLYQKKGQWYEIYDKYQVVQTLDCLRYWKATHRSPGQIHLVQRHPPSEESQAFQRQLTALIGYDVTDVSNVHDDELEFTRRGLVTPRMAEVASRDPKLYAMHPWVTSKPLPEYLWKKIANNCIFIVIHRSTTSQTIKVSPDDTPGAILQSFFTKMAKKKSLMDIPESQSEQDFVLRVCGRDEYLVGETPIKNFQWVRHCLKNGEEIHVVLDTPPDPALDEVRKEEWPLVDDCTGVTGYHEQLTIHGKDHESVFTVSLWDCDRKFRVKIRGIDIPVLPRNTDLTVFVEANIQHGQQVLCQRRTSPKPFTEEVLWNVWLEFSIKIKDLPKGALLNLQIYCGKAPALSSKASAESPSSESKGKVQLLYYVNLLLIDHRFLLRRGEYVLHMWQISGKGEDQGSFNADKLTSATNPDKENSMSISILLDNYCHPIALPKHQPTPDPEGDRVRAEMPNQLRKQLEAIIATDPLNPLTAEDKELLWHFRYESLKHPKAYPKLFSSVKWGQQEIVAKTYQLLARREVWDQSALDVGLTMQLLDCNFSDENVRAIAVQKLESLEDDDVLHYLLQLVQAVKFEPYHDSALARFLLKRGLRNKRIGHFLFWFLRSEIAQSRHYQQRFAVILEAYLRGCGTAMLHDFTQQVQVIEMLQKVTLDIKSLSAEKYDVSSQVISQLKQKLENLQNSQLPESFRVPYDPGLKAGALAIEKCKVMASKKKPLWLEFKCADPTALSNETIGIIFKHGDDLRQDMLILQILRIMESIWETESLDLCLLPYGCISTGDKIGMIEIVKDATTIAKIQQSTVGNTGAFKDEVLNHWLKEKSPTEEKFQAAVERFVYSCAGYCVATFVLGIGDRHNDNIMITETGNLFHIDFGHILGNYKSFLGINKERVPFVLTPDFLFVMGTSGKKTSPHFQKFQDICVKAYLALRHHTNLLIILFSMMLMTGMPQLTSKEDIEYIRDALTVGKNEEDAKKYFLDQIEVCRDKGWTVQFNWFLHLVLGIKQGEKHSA

Experiment [7] has as its target Epidermal growth factor receptor (Homo sapiens) (UniProt P00533). Briefly: Enzymatic radiometric [Km ATP] KinaseProfiler LeadHunter assay, kinase: EGFR, catalogue number: 14-531KP The assay has been performed by Eurofins Discovery. To be noted: ATP concentration 10.0 uM, Test compound concentration 10.0 uM.
Experiment [8] deals with T3, Interleukin-1 receptor-associated kinase 4 (Homo sapiens) (UniProt Q9NWZ3).
T3 sequence (whole entry): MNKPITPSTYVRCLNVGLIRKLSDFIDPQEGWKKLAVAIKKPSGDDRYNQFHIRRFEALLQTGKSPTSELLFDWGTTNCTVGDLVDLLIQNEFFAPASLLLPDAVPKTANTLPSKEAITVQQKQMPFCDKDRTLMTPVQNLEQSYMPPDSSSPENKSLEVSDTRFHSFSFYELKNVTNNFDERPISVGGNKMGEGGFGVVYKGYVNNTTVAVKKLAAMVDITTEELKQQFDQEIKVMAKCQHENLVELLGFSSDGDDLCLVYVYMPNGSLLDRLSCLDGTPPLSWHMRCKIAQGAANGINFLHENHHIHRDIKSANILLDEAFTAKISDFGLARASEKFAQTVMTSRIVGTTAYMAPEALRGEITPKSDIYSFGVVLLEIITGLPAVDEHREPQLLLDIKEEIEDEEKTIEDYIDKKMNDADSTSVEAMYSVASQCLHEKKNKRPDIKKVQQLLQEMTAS
Briefly: Enzymatic radiometric [Km ATP] KinaseProfiler LeadHunter assay, kinase: IRAK4, catalogue number: 14-599KP The assay has been performed by Eurofins Discovery. The note with it: ATP concentration 200.0 uM, Test compound concentration 10.0 uM.

Experiment [9] deals with T4, Aurora kinase A (Homo sapiens) (UniProt O14965).
T4 sequence (whole entry): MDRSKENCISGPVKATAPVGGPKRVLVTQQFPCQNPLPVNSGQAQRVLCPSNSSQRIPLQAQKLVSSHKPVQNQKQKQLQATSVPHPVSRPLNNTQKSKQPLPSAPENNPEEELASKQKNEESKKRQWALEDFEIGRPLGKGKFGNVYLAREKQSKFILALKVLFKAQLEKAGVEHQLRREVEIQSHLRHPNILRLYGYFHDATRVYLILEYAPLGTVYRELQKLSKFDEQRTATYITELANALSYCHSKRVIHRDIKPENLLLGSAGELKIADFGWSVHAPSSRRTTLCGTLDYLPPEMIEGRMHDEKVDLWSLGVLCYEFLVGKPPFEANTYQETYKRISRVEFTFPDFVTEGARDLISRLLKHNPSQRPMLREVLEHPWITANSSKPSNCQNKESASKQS
Briefly: Enzymatic radiometric [Km ATP] KinaseProfiler LeadHunter assay, kinase: Aurora-A, catalogue number: 14-511KP The assay has been performed by Eurofins Discovery. The note with it: ATP concentration 15.0 uM, Test compound concentration 10.0 uM.

Experiment [10] has as its target PI3-kinase p110-delta/p85-alpha (Homo sapiens) (UniProt P27986+O00329). Nature of the experiment: Enzymatic radiometric [Km ATP] KinaseProfiler LeadHunter assay, kinase: PI3 Kinase (p110-delta/p85-alpha), catalogue number: 14-604KP The assay has been performed by Eurofins Discovery. Format: protein-complex assay. The note with it: ATP concentration 200.0 uM, Test compound concentration 10.0 uM.

Experiment [11] concerns the target Dual specificity mitogen-activated protein kinase kinase 1 (Homo sapiens) (UniProt Q02750). Nature of the experiment: Enzymatic radiometric [Km ATP] KinaseProfiler LeadHunter assay, kinase: MEK1, catalogue number: 14-429KP The assay has been performed by Eurofins Discovery. To be noted: ATP concentration 10.0 uM, Test compound concentration 10.0 uM.

Chain of PI3K p110 beta/p85 alpha (Homo sapiens) (P27986 2-724 limits assumed): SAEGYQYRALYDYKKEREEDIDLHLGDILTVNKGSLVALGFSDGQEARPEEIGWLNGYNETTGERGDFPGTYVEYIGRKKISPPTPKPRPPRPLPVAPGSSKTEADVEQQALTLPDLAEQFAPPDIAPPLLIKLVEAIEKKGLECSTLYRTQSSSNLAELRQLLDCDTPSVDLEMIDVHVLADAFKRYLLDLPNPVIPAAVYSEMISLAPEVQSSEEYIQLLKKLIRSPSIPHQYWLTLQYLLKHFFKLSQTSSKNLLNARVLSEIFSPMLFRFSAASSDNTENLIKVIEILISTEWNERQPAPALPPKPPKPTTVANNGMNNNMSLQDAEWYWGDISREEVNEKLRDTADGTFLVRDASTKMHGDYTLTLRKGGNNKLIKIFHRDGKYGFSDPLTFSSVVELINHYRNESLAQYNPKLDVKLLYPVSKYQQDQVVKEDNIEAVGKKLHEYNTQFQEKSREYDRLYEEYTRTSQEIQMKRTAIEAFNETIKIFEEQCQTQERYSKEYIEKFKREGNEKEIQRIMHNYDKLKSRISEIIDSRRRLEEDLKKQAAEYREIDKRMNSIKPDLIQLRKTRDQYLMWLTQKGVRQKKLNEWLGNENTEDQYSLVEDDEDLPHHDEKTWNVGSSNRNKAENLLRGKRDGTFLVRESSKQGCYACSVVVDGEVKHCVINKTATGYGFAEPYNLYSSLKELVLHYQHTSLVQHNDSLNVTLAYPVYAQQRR
Chain of PI3K p110 beta/p85 alpha (Homo sapiens) (P42338 whole entry partner): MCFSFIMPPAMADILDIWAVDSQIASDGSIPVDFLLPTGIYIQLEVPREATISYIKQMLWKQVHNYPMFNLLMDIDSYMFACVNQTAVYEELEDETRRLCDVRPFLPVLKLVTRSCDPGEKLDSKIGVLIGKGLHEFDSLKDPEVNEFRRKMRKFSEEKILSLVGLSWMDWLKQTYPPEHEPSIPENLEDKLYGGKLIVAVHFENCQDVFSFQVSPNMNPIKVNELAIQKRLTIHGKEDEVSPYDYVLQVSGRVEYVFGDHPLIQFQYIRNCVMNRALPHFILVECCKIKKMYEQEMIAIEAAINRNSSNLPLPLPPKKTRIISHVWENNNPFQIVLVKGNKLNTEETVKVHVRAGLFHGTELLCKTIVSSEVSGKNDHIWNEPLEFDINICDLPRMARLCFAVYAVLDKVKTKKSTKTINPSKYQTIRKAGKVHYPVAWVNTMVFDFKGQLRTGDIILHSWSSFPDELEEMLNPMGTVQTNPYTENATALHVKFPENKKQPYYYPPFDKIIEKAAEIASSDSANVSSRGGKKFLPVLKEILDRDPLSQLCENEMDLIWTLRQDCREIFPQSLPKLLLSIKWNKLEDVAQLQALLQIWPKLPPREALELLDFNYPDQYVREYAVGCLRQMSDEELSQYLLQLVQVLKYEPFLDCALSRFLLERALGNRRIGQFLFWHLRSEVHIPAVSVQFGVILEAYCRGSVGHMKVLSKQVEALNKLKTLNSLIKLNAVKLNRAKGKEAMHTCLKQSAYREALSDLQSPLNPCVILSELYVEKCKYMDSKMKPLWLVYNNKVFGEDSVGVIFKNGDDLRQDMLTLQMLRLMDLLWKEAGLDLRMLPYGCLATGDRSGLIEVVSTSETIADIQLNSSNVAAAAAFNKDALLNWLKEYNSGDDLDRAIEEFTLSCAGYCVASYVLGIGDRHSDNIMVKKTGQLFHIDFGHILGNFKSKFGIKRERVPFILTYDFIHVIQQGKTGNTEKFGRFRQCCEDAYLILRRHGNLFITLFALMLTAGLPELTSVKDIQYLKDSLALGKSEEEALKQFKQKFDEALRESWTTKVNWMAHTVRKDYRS
Chain of 5'-AMP-activated protein kinase catalytic subunit alpha-1 (Homo sapiens) (Q13131 whole entry, looked up, canonical isoform): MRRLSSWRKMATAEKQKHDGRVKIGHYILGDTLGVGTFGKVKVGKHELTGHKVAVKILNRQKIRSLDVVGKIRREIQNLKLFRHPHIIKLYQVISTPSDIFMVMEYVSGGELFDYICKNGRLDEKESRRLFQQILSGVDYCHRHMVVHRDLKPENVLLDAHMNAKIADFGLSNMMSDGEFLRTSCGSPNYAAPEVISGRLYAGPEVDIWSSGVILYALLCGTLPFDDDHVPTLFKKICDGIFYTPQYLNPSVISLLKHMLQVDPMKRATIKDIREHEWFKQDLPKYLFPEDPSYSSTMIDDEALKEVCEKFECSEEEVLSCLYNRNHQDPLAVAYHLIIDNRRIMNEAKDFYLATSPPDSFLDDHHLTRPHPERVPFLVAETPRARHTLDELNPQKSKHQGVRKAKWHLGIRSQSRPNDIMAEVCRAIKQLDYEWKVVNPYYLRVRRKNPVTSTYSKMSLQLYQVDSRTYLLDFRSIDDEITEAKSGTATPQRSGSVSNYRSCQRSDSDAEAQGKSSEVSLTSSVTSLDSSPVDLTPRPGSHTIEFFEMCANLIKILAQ
Chain of Dual specificity mitogen-activated protein kinase kinase 1 (Homo sapiens) (Q02750 whole entry): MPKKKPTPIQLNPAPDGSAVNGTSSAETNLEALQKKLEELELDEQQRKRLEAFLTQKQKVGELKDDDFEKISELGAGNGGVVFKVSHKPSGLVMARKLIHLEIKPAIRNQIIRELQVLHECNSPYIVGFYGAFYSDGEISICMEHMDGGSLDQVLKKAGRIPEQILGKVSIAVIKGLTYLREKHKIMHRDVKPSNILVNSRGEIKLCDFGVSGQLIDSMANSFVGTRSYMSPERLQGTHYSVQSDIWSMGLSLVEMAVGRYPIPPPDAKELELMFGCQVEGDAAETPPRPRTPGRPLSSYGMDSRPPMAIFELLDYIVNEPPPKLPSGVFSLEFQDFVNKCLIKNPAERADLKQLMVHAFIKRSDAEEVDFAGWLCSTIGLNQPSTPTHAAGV

Consider `CNC(=O)Cn1cc(-c2cc3c(N[C@@H](c4ccc5c(c4)S(=O)(=O)CCC5)C(C)C)ncnc3[nH]2)cn1`, for which the Activity in experiment [1] was found to be 111%; in [2] it was 100%; in experiment [3] it was 72%; in [4], 89%; in [5] it was 104%; in [6], 93%. For the same compound, the Activity in [7] came out at 98%; in experiment [8] it was 101%; in experiment [9], 77%; in experiment [10], 87%; in experiment [11] it was 97%.

`CNCc1cc(-c2cc3c(N[C@@H](c4ccc5c(c4)S(=O)(=O)CCC5)C(C)C)ncnc3[nH]2)co1`: the Activity came to 86% in experiment [1]; 92% in experiment [2]; 51% in experiment [3]; 122% in experiment [4]; 86% in experiment [5]; 96% in [6]. The Activity in experiment [7] was determined as 97%; in experiment [8], 100%; in experiment [9] it was 73%; in experiment [10] it was 80%; in [11], 97%.
